Here are results for 25 compounds from patent US10144732B2 (BIOGEN MA INC., priority 2014, dated 2018).

“And” between values parts separate entries of the source, which are not always exact repeats. Equal entries are not always repeated. Structures can show the parent of a compound that is named as a salt. Bounds are passed on as bounds.

One assay addresses T1, Human ATX protein (Homo sapiens, UniProt Q13822).
T1 construct: made in house
Description: ATX biochemical assay (FRET, FS-3 substrate). Particulars: FRET assay, FS-3 2 μM, ATX 1.0 μg/mL, 30 minutes preincubation, 2 hours reaction at room temperature; read-out: IC50. Summed up: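 FRET read-out: cleavage of FS-3 (2 μM final) unquenches fluorescein, measured at 485/538 nm after 2 h at room temperature. Before substrate addition, in-house-expressed human autotaxin (1.0 μg/mL) sat with compound for 30 min in pH 7.4 Tris/NaCl/KCl/CaCl2/MgCl2 buffer containing fatty acid free-BSA at 1 mg/mL.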
As usually defined, the IC50 is the concentration that gives 50% inhibition. Consider `O=C(C[C@H]1CC[C@@H](C(=O)O)CC1)N1CCc2c(C(F)(F)F)nn(Cc3ccc(Cl)s3)c2C1` [Example 5-25, cis-4-(2-(1-((5-Chlorothiophen-2-yl)methyl)-3-(trifluoromethyl)-4,5-dihydro-1H-pyrazolo[3,4-c]pyridin-6(7H)-yl)-2-oxoethyl)cyclohexanecarboxylic acid], for which the concentration for half-maximal inhibition (IC50) was at most 100 nM.

Consider `O=C(O)[C@H]1C2C3C[C@@H]1C(CC(=O)N1CCc4c(C(F)(F)F)nn(Cc5ccc(Cl)cc5F)c4C1)C32` (stereo partly drawn) [Example 6-16, (3R,4R)-5-(2-(1-(4-Chloro-2-fluorobenzyl)-3-(trifluoromethyl)-4,5-dihydro-1H-pyrazolo[3,4-c]pyridin-6(7H)-yl)-2-oxoethyl)tricyclo[2.2.1.02,6]heptane-3-carboxylic acid], for which the IC50 was at most 100 nM.

Regarding `COC(=O)C1CCN(CC(=O)N2CCc3c(C(F)(F)F)nn(Cc4ccc(F)cc4)c3C2)CC1` [Example 12-1, Methyl 1-(2-(1-(4-fluorobenzyl)-3-(trifluoromethyl)-4,5-dihydro-1H-pyrazolo[3,4-c]pyridin-6(7H)-yl)-2-oxoethyl)piperidine-4-carboxylate], the concentration for half-maximal inhibition (IC50) is at most 100 nM.

As to `O=C(O)[C@H]1CC(CC(=O)N2CCc3c(C(F)(F)F)nn(Cc4ccc(Cl)cc4F)c3C2)CN1` (stereo partly drawn) [Example 9-14, (2R)-4-(2-(1-(4-Chloro-2-fluorobenzyl)-3-(trifluoromethyl)-4,5-dihydro-1H-pyrazolo[3,4-c]pyridin-6(7H)-yl)-2-oxoethyl)pyrrolidine-2-carboxylic acid TFA salt], the IC50 is at most 100 nM.

Take `CC1CC(CC(=O)N2CCc3c(C(F)(F)F)nn(Cc4ccc(Cl)cc4F)c3C2)CCN1C` (stereo not shown) [Example 10-2, 1-(1-(4-Chloro-2-fluorobenzyl)-3-(trifluoromethyl)-4,5-dihydro-1H-pyrazolo[3,4-c]pyridin-6(7H)-yl)-2-(1,2-dimethylpiperidin-4-yl)ethanone TFA salt]: the IC50 is at most 100 nM.

With `O=C(C[C@H]1CC[C@H](C(=O)O)CC1)N1CCc2c(-c3ccccc3)nn(Cc3ccc(F)cc3)c2C1` [Example 5-39, trans-4-(2-(1-(4-Fluorobenzyl)-3-phenyl-4,5-dihydro-1H-pyrazolo[3,4-c]pyridin-6(7H)-yl)-2-oxoethyl)cyclohexanecarboxylic acid], the IC50 is at most 100 nM.

On to `CCCC1CC(CC(=O)N2CCc3c(C(F)(F)F)nn(Cc4ccc(F)cc4)c3C2)CCN1` (stereo not shown) [Example 9-12, 1-(1-(4-Fluorobenzyl)-3-(trifluoromethyl)-4,5-dihydro-1H-pyrazolo[3,4-c]pyridin-6(7H)-yl)-2-(2-propylpiperidin-4-yl)ethanone acid TFA salt], for which the IC50 was at most 100 nM.

Turning to `C[C@]1(C(=O)O)CC[C@@H](CC(=O)N2CCc3c(C(F)(F)F)nn(Cc4ccc(F)cc4)c3C2)CC1` [Example 7-25, cis-4-(2-(1-(4-fluorobenzyl)-3-(trifluoromethyl)-4,5-dihydro-1H-pyrazolo[3,4-c]pyridin-6(7H)-yl)-2-oxoethyl)-1-methylcyclohexanecarboxylic acid], the 50% inhibitory concentration (IC50) is at most 100 nM.

For the compound `O=C(CC1CCN(c2ncccn2)CC1)N1CCc2c(C(F)(F)F)nn(Cc3ccc(F)cc3)c2C1` [Example 18-1, 1-(1-(4-Fluorobenzyl)-3-(trifluoromethyl)-4,5-dihydro-1H-pyrazolo[3,4-c]pyridin-6(7H)-yl)-2-(1-(pyrimidin-2-yl)piperidin-4-yl)ethanone TFA salt], the IC50 is at most 100 nM.

For `O=C(C[C@H]1CC[C@@H](N2CC(F)(F)C2)CC1)N1CCc2c(C(F)(F)F)nn(Cc3ccc(F)cc3)c2C1` [Example 22-7, 2-(cis-4-(3,3-Difluoroazetidin-1-yl)cyclohexyl)-1-(1-(4-fluorobenzyl)-3-(trifluoromethyl)-4,5-dihydro-1H-pyrazolo[3,4-c]pyridin-6(7H)-yl)ethanone TFA salt], the IC50 is at most 100 nM.

Turning to `CCC1CC(CC(=O)N2CCc3c(C(F)(F)F)nn(Cc4ccc(F)cc4)c3C2)CCN1C(=O)OC(C)(C)C` (stereo not shown) [Example 8-8, tert-Butyl 2-ethyl-4-(2-(1-(4-fluorobenzyl)-3-(trifluoromethyl)-4,5-dihydro-1H-pyrazolo[3,4-c]pyridin-6(7H)-yl)-2-oxoethyl)piperidine-1-carboxylate], the concentration for half-maximal inhibition (IC50) is at most 100 nM.

As for `CCOC(=O)C1CCC(CC(=O)N2CCc3c(C(F)(F)F)nn(Cc4ccc(F)cc4)c3C2)CC1` (stereo not shown) [Example 1-1, Ethyl 4-(2-(1-(4-fluorobenzyl)-3-(trifluoromethyl)-4,5-dihydro-1H-pyrazolo[3,4-c]pyridin-6 (7H)-yl)-2-oxoethyl)cyclohexanecarboxylate], the IC50 was at most 100 nM.

For `O=C(C[C@H]1CC[C@H](C(=O)O)CC1)N1CCc2c(C(F)(F)F)nn(Cc3ccsc3)c2C1` [Example 5-27, trans-4-(2-Oxo-2-(1-(thiophen-3-ylmethyl)-3-(trifluoromethyl)-4,5-dihydro-1H-pyrazolo[3,4-c]pyridin-6(7H)-yl)ethyl)cyclohexanecarboxylic acid], the IC50 is at most 100 nM.

Take `O=C(O)C1CCCN(CC(=O)N2CCc3c(C(F)(F)F)nn(Cc4ccc(F)cc4)c3C2)CC1` (stereo not shown) [Example 13-19, 1-(2-(1-(4-Fluorobenzyl)-3-(trifluoromethyl)-4,5-dihydro-1H-pyrazolo[3,4-c]pyridin-6(7H)-yl)-2-oxoethyl)azepane-4-carboxylic acid TFA salt]: the IC50 is at most 100 nM.

As to `CC1(C(=O)O)CCC(CC(=O)N2CCc3c(C(F)(F)F)nn(Cc4ccc(Cl)cc4F)c3C2)CC1` (mixture of isomers) [Example 6-5, 4-(2-(1-(4-chloro-2-fluorobenzyl)-3-(trifluoromethyl)-4,5-dihydro-1H-pyrazolo[3,4-c]pyridin-6(7H)-yl)-2-oxoethyl)-1-methylcyclohexanecarboxylic acid], the IC50 was at most 100 nM.

Turning to `O=C(C[C@H]1CC[C@H](C(=O)O)CC1)N1CCc2c(C(F)(F)F)nn(Cc3ccc(F)cc3F)c2C1` [Example 5-30, trans-4-(2-(1-(2,4-Difluorobenzyl)-3-(trifluoromethyl)-4,5-dihydro-1H-pyrazolo[3,4-c]pyridin-6(7H)-yl)-2-oxoethyl)cyclohexanecarboxylic acid], the IC50 was at most 100 nM.

For `COC(=O)[C@H]1CC[C@@H](N(C)C(=O)N2CCc3c(C(F)(F)F)nn(Cc4ccc(Cl)cc4F)c3C2)CC1` [Example 3-3, cis-Methyl 4-(1-(4-chloro-2-fluorobenzyl)-N-methyl-3-(trifluoromethyl)-4,5,6,7-tetrahydro-1H-pyrazolo[3,4-c]pyridine-6-carboxamido)cyclohexanecarboxylate], the IC50 is > 500 nM and ≤ 10000 nM.

With `CN1CC(CC(=O)N2CCc3c(C(F)(F)F)nn(Cc4ccc(Cl)cc4F)c3C2)C[C@@H]1C(=O)O` (stereo partly drawn) [Example 10-10, (2R)-4-(2-(1-(4-chloro-2-fluorobenzyl)-3-(trifluoromethyl)-4,5-dihydro-1H-pyrazolo[3,4-c]pyridin-6(7H)-yl)-2-oxoethyl)-1-methylpyrrolidine-2-carboxylic acid TFA salt], the IC50 is at most 100 nM.

On to `CC1CCC(Cn2nc(C(F)(F)F)c3c2CN(C(=O)C[C@H]2CC[C@H](C(=O)O)CC2)CC3)CC1` (stereo partly drawn) [Example 5-37, trans-4-(2-(1-((4-Methylcyclohexyl)methyl)-3-(trifluoromethyl)-4,5-dihydro-1H-pyrazolo[3,4-c]pyridin-6(7H)-yl)-2-oxoethyl)cyclohexanecarboxylic acid], for which the half-inhibitory concentration (IC50) is at most 100 nM.

In the case of `COC(=O)C1CC2CCC(C1)C2CC(=O)N1CCc2c(C(F)(F)F)nn(Cc3ccc(Cl)cc3F)c2C1` (stereo not shown) [Example 1-27, Methyl 8-(2-(1-(4-chloro-2-fluorobenzyl)-3-(trifluoromethyl)-4,5-dihydro-1H-pyrazolo[3,4-c]pyridin-6(7H)-yl)-2-oxoethyl)bicyclo[3.2.1]octane-3-carboxylate], the concentration for half-maximal inhibition (IC50) is at most 100 nM.

For `N#Cc1nn(Cc2ccc(F)cc2)c2c1CCN(C(=O)C[C@H]1CC[C@H](C(=O)O)CC1)C2` [Example 5-46, trans-4-(2-(3-Cyano-1-(4-fluorobenzyl)-4,5-dihydro-1H-pyrazolo[3,4-c]pyridin-6(7H)-yl)-2-oxoethyl)cyclohexanecarboxylic acid], the IC50 is at most 100 nM.

In the case of `O=C(CC1CCNC(C(F)(F)F)C1)N1CCc2c(C(F)(F)F)nn(Cc3ccc(F)cc3)c2C1` (stereo not shown) [Example 9-13, 1-(1-(4-Fluorobenzyl)-3-(trifluoromethyl)-4,5-dihydro-1H-pyrazolo[3,4-c]pyridin-6(7H)-yl)-2-(2-(trifluoromethyl)piperidin-4-yl)ethanone TFA salt], the half-maximal inhibitory concentration (IC50) was at most 100 nM.

As to `CN1CCC(CC(=O)N2CCc3c(C(F)(F)F)nn(Cc4ccc(F)cc4)c3C2)C1` (stereo not shown) [Example 10-5, 1-(1-(4-Fluorobenzyl)-3-(trifluoromethyl)-4,5-dihydro-1H-pyrazolo[3,4-c]pyridin-6(7H)-yl)-2-(1-methylpyrrolidin-3-yl)ethanone], the half-maximal inhibitory concentration (IC50) is 100 to 250 nM.

As to `CC1(C(=O)O)CCC(CC(=O)N2CCc3c(C(F)(F)F)nn(Cc4ccc(F)cc4)c3C2)CC1` (stereo not shown) [Example 6-11, 4-(2-(1-(4-Fluorobenzyl)-3-(trifluoromethyl)-4,5-dihydro-1H-pyrazolo[3,4-c]pyridin-6(7H)-yl)-2-oxoethyl)-1-methylcyclohexanecarboxylic acid], the IC50 was at most 100 nM.

The same assay, now with this note: IC50, FRET assay, FS-3 2 μM, ATX 1.0 μg/mL, 30 minutes preincubation, 2 hours reaction at room temperature.
For the compound `O=C(O)C1CC2COCC(C1)N2CC(=O)N1CCc2c(C(F)(F)F)nn(Cc3ccc(Cl)cc3F)c2C1` (stereo not shown) [Example 13-27, 9-(2-(1-(4-Chloro-2-fluorobenzyl)-3-(trifluoromethyl)-4,5-dihydro-1H-pyrazolo[3,4-c]pyridin-6(7H)-yl)-2-oxoethyl)-3-oxa-9-azabicyclo[3.3.1]nonane-7-carboxylic acid TFA salt], the 50% inhibitory concentration (IC50) was at most 100 nM.
